In US20230055961A1, “PENTAFLUOROBENZENESULFONAMIDE DERIVATIVES AND USES THEREOF” (Dunad Therapeutics Ltd., priority 2019, published 2023):

Legend:
BTK [1] = target: T1, BTK (Homo sapiens, UniProt Q06187); assay: Enzyme kinetic analysis of BTK inhibition (time-dependent inhibition); format: biochemical; conditions: 0.1 nM BTK, 500 μM ATP, 60-700 nM compound
From the text: One of ordinary skill in the art will recognize that this is consistent with the irreversible inhibition of BTK by Compound 5-1.

BTK [2] = target: T1, BTK; assay: In vitro BTK inhibition, biochemical IC50 (no preincubation); conditions: Table 7
Description: IC50 Values (nM) for the Inhibition of BTK Activity
In vitro BTK and JAK3 inhibition studies are shown in Table 7 and Table 8 (no preincubation).

FGFR = assay: In vitro kinase inhibition studies (Table 13), FGFR; format: biochemical
JAK3 = target: T2, JAK3 (Homo sapiens, UniProt P52333); assay: In vitro kinase inhibition studies (Table 13), JAK3; format: biochemical
T2 sequence (P52333 1-1124): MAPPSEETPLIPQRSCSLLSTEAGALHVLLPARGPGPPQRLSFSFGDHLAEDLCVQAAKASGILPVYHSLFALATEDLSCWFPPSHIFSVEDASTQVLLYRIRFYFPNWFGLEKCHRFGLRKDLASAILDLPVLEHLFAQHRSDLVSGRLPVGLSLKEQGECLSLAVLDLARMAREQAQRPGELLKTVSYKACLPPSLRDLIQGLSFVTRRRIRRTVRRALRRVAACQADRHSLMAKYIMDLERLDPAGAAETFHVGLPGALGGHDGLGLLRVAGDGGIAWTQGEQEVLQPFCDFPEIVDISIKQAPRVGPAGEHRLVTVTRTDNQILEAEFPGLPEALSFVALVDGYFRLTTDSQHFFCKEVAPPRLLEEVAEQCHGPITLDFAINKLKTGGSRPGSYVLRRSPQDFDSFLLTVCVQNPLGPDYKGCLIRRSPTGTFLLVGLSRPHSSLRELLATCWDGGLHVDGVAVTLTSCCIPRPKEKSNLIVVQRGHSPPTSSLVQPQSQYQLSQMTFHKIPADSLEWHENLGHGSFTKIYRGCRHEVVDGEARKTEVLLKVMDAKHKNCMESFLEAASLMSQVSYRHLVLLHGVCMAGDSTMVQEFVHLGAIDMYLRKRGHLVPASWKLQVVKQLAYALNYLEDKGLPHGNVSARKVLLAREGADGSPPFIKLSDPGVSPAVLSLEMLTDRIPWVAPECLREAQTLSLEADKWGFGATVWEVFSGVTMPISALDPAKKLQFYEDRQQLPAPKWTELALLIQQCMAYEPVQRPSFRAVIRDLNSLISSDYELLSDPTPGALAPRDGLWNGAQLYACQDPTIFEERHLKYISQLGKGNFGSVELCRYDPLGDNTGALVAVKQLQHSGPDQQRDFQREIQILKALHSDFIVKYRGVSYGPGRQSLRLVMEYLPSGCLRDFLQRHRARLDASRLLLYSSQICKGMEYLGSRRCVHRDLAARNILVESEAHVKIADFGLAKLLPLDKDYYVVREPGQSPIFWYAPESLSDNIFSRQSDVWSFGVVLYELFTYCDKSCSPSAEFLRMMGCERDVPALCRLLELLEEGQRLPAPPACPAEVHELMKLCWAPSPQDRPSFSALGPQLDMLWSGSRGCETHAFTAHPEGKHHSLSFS

FGFR1 = FGFR1 (Homo sapiens, UniProt P11362); assay: In vitro kinase inhibition studies (Table 9), FGFR1; format: biochemical
Sequence of FGFR1 (P11362 22-822, species assumed): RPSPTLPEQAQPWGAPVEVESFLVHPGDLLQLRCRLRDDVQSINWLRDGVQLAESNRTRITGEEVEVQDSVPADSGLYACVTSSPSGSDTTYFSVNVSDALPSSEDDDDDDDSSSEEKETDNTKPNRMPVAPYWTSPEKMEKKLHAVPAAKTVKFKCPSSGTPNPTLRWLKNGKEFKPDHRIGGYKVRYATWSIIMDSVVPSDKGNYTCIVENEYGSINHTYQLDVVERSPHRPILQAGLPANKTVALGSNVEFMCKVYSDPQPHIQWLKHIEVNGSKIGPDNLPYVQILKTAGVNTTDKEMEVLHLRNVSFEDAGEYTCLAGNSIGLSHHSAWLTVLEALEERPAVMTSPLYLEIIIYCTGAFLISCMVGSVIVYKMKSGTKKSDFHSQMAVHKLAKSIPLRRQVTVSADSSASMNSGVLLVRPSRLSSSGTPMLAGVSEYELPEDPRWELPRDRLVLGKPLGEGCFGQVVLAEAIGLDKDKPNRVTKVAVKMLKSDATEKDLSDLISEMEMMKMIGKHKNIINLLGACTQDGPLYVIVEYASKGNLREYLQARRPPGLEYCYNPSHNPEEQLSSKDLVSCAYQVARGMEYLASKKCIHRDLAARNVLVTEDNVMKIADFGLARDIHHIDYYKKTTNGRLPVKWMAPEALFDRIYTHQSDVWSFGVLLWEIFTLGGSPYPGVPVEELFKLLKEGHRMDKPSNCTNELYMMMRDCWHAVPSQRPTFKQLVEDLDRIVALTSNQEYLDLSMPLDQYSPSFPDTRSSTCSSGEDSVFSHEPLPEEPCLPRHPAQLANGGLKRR

BMX [3] = target: T3, BMX (Homo sapiens, UniProt P51813); assay: In vitro kinase inhibition studies (Table 13), BMX; format: biochemical
T3 sequence (P51813 1-675): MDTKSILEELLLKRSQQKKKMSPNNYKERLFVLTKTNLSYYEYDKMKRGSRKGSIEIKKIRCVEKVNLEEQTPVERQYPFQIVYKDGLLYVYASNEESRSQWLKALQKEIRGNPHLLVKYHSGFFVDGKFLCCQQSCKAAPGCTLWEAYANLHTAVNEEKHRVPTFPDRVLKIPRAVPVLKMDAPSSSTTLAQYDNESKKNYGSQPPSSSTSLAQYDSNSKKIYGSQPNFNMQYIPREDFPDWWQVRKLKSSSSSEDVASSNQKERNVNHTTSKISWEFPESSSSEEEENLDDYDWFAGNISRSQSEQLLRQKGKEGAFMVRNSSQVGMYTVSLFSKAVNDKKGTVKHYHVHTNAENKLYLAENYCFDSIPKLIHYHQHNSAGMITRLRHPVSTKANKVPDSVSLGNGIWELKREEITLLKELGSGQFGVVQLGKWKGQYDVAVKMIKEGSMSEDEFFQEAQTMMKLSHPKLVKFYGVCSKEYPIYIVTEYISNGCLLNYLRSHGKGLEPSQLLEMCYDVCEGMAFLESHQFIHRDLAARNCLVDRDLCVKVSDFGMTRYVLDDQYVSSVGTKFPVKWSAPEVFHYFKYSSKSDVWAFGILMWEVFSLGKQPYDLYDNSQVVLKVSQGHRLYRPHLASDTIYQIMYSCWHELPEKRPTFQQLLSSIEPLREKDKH

EGFR L850R = EGFR L850R (Homo sapiens, UniProt P00533); assay: In vitro kinase inhibition studies (Table 13), EGFR L850R; format: biochemical
Sequence of EGFR L850R (P00533 whole entry L858R, form open): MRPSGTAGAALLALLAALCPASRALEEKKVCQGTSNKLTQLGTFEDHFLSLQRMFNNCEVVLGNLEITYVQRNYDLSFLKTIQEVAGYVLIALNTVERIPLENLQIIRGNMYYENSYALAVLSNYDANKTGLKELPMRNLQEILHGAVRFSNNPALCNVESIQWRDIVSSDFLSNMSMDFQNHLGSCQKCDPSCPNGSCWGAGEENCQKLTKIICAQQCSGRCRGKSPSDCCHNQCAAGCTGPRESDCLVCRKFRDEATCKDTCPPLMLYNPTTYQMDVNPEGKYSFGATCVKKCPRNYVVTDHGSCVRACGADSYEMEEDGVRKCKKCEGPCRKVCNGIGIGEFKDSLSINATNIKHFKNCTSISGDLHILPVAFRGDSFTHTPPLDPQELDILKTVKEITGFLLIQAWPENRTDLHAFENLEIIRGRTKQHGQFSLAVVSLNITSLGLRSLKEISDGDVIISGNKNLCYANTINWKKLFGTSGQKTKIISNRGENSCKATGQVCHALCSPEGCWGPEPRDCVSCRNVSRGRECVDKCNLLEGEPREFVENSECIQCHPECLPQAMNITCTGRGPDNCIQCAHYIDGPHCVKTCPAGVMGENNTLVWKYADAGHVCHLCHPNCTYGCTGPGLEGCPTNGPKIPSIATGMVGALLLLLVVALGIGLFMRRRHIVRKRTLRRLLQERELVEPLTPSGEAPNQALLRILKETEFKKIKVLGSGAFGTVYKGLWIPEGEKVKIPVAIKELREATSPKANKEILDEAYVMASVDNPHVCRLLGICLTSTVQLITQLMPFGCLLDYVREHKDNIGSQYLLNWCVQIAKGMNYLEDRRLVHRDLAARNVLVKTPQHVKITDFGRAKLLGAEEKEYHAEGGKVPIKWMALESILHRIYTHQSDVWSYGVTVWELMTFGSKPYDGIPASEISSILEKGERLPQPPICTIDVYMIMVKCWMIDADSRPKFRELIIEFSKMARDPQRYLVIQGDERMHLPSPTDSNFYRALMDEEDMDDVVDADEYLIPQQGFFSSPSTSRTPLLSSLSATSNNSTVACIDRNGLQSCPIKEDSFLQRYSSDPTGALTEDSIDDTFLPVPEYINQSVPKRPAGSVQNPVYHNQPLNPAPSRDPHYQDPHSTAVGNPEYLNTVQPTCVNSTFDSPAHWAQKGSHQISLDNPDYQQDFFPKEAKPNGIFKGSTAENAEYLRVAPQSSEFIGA

EGFR L850R, T790M = EGFR L850R, T790M (Homo sapiens, UniProt P00533, T790M, form not given); assay: In vitro kinase inhibition studies (Table 13), EGFR L850R, T790M; format: biochemical
Sequence of EGFR L850R, T790M (P00533 whole entry T790M/L858R, form open): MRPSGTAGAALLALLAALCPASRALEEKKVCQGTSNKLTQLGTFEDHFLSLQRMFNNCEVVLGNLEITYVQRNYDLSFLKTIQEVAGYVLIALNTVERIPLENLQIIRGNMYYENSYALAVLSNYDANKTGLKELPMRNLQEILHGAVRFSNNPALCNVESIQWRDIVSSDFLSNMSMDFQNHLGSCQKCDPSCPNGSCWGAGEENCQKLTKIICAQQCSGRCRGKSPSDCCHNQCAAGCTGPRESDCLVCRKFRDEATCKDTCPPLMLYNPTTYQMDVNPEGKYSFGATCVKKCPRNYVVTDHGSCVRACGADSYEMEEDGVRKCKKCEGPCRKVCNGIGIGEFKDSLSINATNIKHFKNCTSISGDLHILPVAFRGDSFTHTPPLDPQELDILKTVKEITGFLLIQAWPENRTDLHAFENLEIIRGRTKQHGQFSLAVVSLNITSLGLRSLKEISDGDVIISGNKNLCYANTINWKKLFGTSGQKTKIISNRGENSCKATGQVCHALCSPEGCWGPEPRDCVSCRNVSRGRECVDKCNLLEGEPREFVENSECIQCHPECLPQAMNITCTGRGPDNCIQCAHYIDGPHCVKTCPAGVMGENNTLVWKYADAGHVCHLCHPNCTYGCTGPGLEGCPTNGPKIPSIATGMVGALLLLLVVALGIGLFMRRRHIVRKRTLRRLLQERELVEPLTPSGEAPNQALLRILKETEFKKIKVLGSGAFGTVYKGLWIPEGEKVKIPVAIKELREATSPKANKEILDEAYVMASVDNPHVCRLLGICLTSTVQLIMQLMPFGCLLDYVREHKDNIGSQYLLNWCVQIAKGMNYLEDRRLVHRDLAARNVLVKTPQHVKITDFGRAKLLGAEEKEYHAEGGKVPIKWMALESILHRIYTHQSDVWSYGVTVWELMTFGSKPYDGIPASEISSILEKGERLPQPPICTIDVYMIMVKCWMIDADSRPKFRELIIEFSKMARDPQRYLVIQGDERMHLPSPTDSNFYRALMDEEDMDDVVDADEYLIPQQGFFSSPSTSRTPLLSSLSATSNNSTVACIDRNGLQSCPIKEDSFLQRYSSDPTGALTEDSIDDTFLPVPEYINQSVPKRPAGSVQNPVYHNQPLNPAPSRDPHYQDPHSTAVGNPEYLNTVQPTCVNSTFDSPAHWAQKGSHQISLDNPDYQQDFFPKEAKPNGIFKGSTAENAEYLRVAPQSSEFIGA

EGFR = EGFR (Homo sapiens, UniProt P00533); assay: In vitro kinase inhibition studies (Table 13), EGFR; format: biochemical
Sequence of EGFR (P00533 25-1210, species assumed): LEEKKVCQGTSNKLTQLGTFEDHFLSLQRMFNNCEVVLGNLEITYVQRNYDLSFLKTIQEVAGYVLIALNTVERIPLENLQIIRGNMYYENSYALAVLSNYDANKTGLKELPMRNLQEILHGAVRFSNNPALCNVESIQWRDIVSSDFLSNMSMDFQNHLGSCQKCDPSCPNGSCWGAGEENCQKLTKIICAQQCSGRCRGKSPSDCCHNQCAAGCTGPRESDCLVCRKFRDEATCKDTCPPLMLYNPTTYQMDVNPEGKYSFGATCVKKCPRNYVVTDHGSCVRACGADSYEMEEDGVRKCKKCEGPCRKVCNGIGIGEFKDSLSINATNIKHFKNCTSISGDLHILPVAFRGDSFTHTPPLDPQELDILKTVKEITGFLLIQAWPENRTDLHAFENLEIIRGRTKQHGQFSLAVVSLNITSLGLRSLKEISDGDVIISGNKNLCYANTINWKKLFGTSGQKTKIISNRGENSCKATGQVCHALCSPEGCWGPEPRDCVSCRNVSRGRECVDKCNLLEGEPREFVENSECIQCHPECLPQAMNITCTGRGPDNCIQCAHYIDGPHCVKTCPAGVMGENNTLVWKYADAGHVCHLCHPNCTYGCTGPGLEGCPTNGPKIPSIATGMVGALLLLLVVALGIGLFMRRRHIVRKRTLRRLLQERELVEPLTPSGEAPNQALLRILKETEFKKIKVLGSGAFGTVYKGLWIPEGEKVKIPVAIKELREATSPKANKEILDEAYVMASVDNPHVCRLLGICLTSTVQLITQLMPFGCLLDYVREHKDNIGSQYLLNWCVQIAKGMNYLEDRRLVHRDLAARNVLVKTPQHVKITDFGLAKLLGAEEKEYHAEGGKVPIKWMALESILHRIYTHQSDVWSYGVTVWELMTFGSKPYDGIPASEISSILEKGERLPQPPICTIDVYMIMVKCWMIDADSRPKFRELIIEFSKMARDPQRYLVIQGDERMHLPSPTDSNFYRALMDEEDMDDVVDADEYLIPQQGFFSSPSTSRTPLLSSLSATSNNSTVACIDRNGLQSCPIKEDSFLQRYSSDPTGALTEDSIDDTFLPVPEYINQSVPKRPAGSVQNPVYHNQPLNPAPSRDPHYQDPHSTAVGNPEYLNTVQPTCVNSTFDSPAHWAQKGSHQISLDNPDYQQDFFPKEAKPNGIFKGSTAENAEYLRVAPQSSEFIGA

ERBB4 = ERBB4 (Homo sapiens, UniProt Q15303); assay: In vitro kinase inhibition studies (Table 13), ERBB4; format: biochemical
[4] = system: normal pooled human fibroblasts; assay: IC50 of Ibrutinib analogs against normal human cells, pooled human fibroblasts (Table 14); format: cell-based; conditions: Fibroblast, Table 14, normal human cell line
Description: Anti-cancer efficacy of exemplary compounds of this application is assessed in vitro in different cancer cell lines. Cell viability is examined following treatment at various concentration of inhibitor (0.097656-50 μM) using a cell Titer-Blue cell viability assay. 1×10^4 cells (NHF cells)/well are plated in 96-well assay plates in culture medium. All cells are grown in DMEM, IMDM and RPMI-1640 supplemented with 10% FBS. After 24 hrs, test compounds and vehicle controls are added to appropriate wells so the final volume is […] in each well. The cells are cultured for the desired test exposure period (72 hrs) at 37° C. and 5% CO2. The assay plates are removed from 37° C. incubator and 20 μl/well of CellTiter-Blue® Reagent is added. The plates are incubated using standard cell culture conditions for 1-4 hours and the plates are shaken for 10 seconds and record fluorescence at 560/590 nm.
Therapeutic index=(IC50 human fibroblasts/IC50 RLcells)

BMX [5] = target: T3, BMX; assay: In vitro kinase inhibition studies (Table 9), BMX; format: biochemical

T1 sequence (Q06187 whole entry, species assumed): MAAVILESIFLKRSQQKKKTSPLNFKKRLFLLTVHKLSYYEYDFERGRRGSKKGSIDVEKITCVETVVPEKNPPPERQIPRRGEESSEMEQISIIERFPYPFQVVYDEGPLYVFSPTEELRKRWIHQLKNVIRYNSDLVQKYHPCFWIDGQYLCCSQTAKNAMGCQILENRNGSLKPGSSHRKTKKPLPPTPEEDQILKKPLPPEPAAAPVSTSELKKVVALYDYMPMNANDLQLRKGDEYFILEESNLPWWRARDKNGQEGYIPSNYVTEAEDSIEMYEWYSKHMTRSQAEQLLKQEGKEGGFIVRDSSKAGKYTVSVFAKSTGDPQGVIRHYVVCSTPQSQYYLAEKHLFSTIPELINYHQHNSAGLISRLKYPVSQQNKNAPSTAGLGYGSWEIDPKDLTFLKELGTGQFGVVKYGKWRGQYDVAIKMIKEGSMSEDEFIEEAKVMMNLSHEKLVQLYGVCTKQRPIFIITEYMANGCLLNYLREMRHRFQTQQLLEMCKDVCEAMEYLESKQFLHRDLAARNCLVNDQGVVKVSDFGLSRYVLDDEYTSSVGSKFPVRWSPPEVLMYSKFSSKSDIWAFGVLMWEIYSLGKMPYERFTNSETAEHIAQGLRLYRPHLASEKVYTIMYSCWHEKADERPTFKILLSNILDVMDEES

inhibition profile of BTK by enzyme kinetic analysis (BTK [1]): time-dependent inhibition
IC50 (BTK [2]): 0.01 to 0.1 µM
IC50 (FGFR): 100 to 1000 nM
IC50 (JAK3): 100 to 1000 nM
IC50 (FGFR1): 0.01 to 0.3 µM
IC50 (BMX [3]): 0.1 to 10 nM
IC50 (EGFR L850R): 100 to 1000 nM
IC50 (EGFR L850R, T790M): 100 to 1000 nM
IC50 (EGFR): 100 to 1000 nM
IC50 (ERBB4): 100 to 1000 nM
IC50 (BMX [5]): 0.0001 to 0.01 µM
SMILES: Nc1ncnc2c1c(-c1ccc(Oc3ccccc3)cc1)nn2[C@@H]1CCCN(S(=O)(=O)c2c(F)c(F)c(F)c(F)c2F)C1 [Compound 5-1, (R)-1-(1-((perfluorophenyl)sulfonyl)piperidin-3-yl)-3-(4-phenoxyphenyl)-1H-pyrazolo[3,4-d]pyrimidin-4-amine]
IC50 [4]: 6.2 µM
